In this assay the test system is Plasmodium falciparum. Kind of assay: GSK_TCMDC: Inhibition of Plasmodium falciparum 3D7 in whole erythrocytes, using parasite LDH activity as an index of growth. In kind it is functional, organism-based. The conditions noted are these: Plasmodium falciparum, 3D7.

Structures are written as SMILES.

For `COc1ccc(C2c3ccccc3-c3nc(N)nc(N)c3C2C)cc1` (centres undefined), the XC50 is 241 nM.

Compound `CN1CCCC(CN2CCN(Cc3ccc(-c4ccc(-c5nc6cc(F)ccc6[nH]5)s4)cc3)CC2)C1` (centres undefined) gave an XC50 of 127 nM.

`CC(CCON1C(N)=NC(N)=NC1(C)C)c1ccc(Cl)cc1` (centres undefined) showed an XC50 of 3.2 nM.

With `CCOC(=O)CNC(=O)c1cc(=O)c2ccccc2o1`, the XC50 was found to be 210 nM.

Regarding `O=C(Nc1ccc(Cl)c(Cl)c1)N1CCc2ccc(OCCCN3CCCCC3)cc2CC1`, the XC50 stood at 1520 nM.

In turn, `COc1ccc(CCNCCCCCCNCCc2ccccc2Cl)cc1OC` showed an XC50 of 657 nM.

Regarding `CN1CCN(Cc2cccc(-c3ccc4c(Nc5ccc(F)cc5Cl)ccnc4c3)c2)CC1`, the XC50 turned out to be 156 nM.

Compound `CC(C)C[C@H](Nc1ccnc(NCC2CCCCC2)n1)C(=O)Nc1ccccc1` returned an XC50 of 1430 nM.

With `COc1cccc(C2CCN(CCCCNC(=O)c3ccc(NC(=O)c4ccc(Cl)cc4)cc3)CC2)c1`, the XC50 came out at 965 nM.

`O=C1CCCN1CCCNCc1cccc(-c2ccc(-c3nc4cc(C(F)(F)F)ccc4[nH]3)cc2)c1` displayed an XC50 of 300 nM.

`COc1cc(C(=O)Nc2cccc(-c3nc4ccccc4[nH]3)c2)cc(OC)c1OC` had an XC50 of 723 nM.

Regarding `O=C(Nc1ccc(C(F)(F)F)cc1)c1ccc(S(=O)(=O)NC2CCN(CC3CCCCC3)C2)cc1` (centres undefined), the XC50 amounted to 723 nM.

In turn, `Cc1cc(N2CCCC2)nc(Nc2ccc(NC(=O)c3ccc(Br)o3)cc2)n1` came in with an XC50 of 623 nM.

Turning to `CCCOc1cc(NC(=O)Nc2ccnc3ccccc23)cc(OCCC)c1`, the XC50 is 732 nM.

Consider `CCN(CC)CCNc1nc(C=Cc2ccc(Cl)cc2)nc2cc3ccccc3cc12`, for which the XC50 came out at 147 nM.

As to `CN1CCN(c2cccc(-c3nnc(-c4cccc(OCC(=O)NCc5ccc(C(F)(F)F)cc5)c4)o3)c2)CC1`, the XC50 turned out to be 759 nM.

Regarding `NC(=O)c1ccccc1OCC(=O)Nc1cccc(-c2ccc(-c3nc4ccccc4[nH]3)cc2)c1`, the XC50 amounted to 786 nM.

In turn, `CCOc1ccc(CCCON2C(=N)N=C(N)NC2(C)C)cc1` had an XC50 of 3.2 nM.

As for `O=[N+]([O-])c1cccc(CNCC2CCN(Cc3ccc(Cl)c(Cl)c3)CC2)c1`, the XC50 worked out at 913 nM.

Turning to `CCNc1cc(C(=O)N[C@@H](Cc2ccccc2)[C@H](O)CN[C@H](C)C(C)(C)C)cc(N2CCCCS2(=O)=O)c1`, the XC50 was 820 nM.

Take `O=C(/C=C/c1ccc(C(F)(F)F)cc1)NCCCCCN1CCN(C(=O)Nc2ccc(Cl)cc2)CC1`: the XC50 amounted to 1010 nM.

As for `O=C(Nc1ccc(Br)c(Cl)c1)c1cc([N+](=O)[O-])cc2cn[nH]c12`, the XC50 turned out to be 1060 nM.

`CC(C)CNCc1ccc(-c2cccc(CNc3ccc4ncccc4c3)c2)cc1`: the XC50 came out at 913 nM.

The compound `COc1ccccc1N1CCN(c2cccc3c2nc(-c2cncc(C#N)c2)n3CCNCc2ccccc2)CC1` came in with an XC50 of 706 nM.

With `COc1ccc(Nc2nc(N/N=C/c3cc(Br)ccc3O)nc(Nc3ccc([N+](=O)[O-])cc3)n2)cc1`, the XC50 was 222 nM.

Compound `O=C(NCCCCN1CCC(c2ccc3c(c2O)CCCC3)CC1)c1ccc(NC(=O)c2ccc(Cl)cc2)cc1` yielded an XC50 of 243 nM.

`COc1ccccc1-c1nc2nc(N)nc(N)c2nc1-c1ccccc1OC`: the XC50 came to 1250 nM.

`O=C(NC1CCN(CCCc2ccccc2)CC1)c1ccc(-c2cccc(C(F)(F)F)c2)s1` showed an XC50 of 894 nM.

As to `O=C(NCCc1ccc(F)cc1)c1ccc(N2CCN(c3ccncc3)CC2)nc1`, the XC50 was found to be 1420 nM.

The compound `CCNc1cc(C(=O)N[C@@H](Cc2ccccc2)[C@H](O)CNC(C)(C)Cc2cccc(Cl)c2)cc(N2CCCCS2(=O)=O)c1` yielded an XC50 of 887 nM.

For `CCN(CCCN1CCCCC1)c1cc(C)nc(Nc2cc(C(F)(F)F)ccc2C)n1`, the XC50 stood at 862 nM.

The compound `CCCCCCCCc1c(C)nc(C)c(I)c1O` gave an XC50 of 737 nM.

`CC1CN(c2cc(=O)n(Cc3ccc(NC(=O)Nc4ccc(-c5ccccc5)cc4)cc3)cn2)CC(C)N1` (centres undefined): the XC50 was 974 nM.

For the compound `Cc1cccc2nc(C3CCN(CC4CCN(C(=O)/C=C/c5ccc(Cl)c(Cl)c5)CC4)CC3)[nH]c12`, the XC50 is 485 nM.

These data come from ChEMBL document CHEMBL1157539, “Thousands of chemical starting points for antimalarial lead identification” (Nature, 2010).
